Reference: US4298610A, “Ester derivatives of quinolopyran-4-one-2-carboxylic acids and antiallergic antasthmatics” (priority 1978, dated 1981)

Legend:
[1] = cited from earlier work
[2] = system: allergic asthma; details: Cox et al; cited from earlier work
[3] = system: passive cutaneous anaphylaxis; experiment: passive cutaneous anaphylaxis test (P.C.A.) on rats, oral administration; type: in vivo, rat (SLC Wister); details: 0.5 h, rat, antigen 30 minutes after administration, read-out: Percent inhibition (%)
Description: Various 5-hydroxy-quinolopyran-4-one-2-carboxylic acid esters in terms of the R group represented by the general formula [I] were prepared. […] In order to estimate the efficacy of each compound as an anti-allergic antasthmatic, the efficacy was evaluated according to a passive cutaneous anaphylaxis test (P.C.A.) on rats.
To SLC Wister rats were administered intracutaneously egg white albumin recrystallized 5 times and Bodetallapertussis Vaccine, and serum was collected after 13 days from the rats. […] A physiological salt solution in which egg white albumin and a dye (Evans' blue) were dissolved was administered intravenously, 30 minutes after the oral administration, to the rats; and 30 minutes thereafter the back skins of the rats were peeled off. The dye that transuded from the peeled skin was extracted with Na2 SO4 and acetone, and the quantities of the dye were measured by colorimetry at 620 m μ.

[4] = system: passive cutaneous anaphylaxis; experiment: duration of action in the passive cutaneous anaphylaxis test of the rats, interval between oral administration and antigen varied; type: in vivo, rat (SLC Wister); details: 30 mg/kg
Description: To SLC Wister rats were administered intracutaneously egg white albumin recrystallized 5 times and Bodetallapertussis Vaccine, and serum was collected after 13 days from the rats. […] The serum was diluted 128 times and it was then administered intracutaneously to the back of the rats. After 48 hours, the compounds of the present invention in the quantities shown in Table 1 which had been suspended in 1% tragacanth solution were administered orally to the rats. A physiological salt solution in which egg white albumin and a dye (Evans' blue) were dissolved was administered intravenously, 30 minutes after the oral administration, to the rats; and 30 minutes thereafter the back skins of the rats were peeled off. The dye that transuded from the peeled skin was extracted with Na2 SO4 and acetone, and the quantities of the dye were measured by colorimetry at 620 m μ.
In the above-described passive cutaneous anaphylaxis test of the rats, the intervals between the oral administration of the present compounds and the administration of egg white albumin and the dye were variously changed to observe the changes in the effect of the compounds depending upon the intervals.
As a representative compound of the present invention, 2-methyl-1-pentyl ester of 7,8-dimethyl-5-hydroxy-quinolo[4,3-b]pyran-4-one-2-carboxylic acid was used. The percent inhibition is shown in Table 2 when the compound was orally administered in a ratio of 30 mg/kg.

In the case of `O=C(O)c1cc(=O)c2c(OCC(O)COc3cccc4oc(C(=O)O)cc(=O)c34)cccc2o1` [disodium cromoglycate], the “absorption via oral administration” value [1] is listed as “cannot be absorbed via oral administration” and the “effectiveness for allergic asthma” value [2] is listed as “effective for allergic asthma”.
With `CCCC(C)OC(=O)c1cc(=O)c2c(O)nc3c(C)c(C)ccc3c2o1` (centres unmarked) [2-pentyl ester of 7,8-dimethyl-5-hydroxy-quinolo[4,3-b]pyran-4-one-2-carboxylic acid] the inhibition in vivo at 30 mg/kg [3] was 95.1%.
`CCCCOC(=O)c1cc(=O)c2c(O)nc3c(C)c(C)ccc3c2o1` [n-butyl ester of 7,8-dimethyl-5-hydroxy-quinolo[4,3-b]pyran-4-one-2-carboxylic acid, reference compound] gave an inhibition in vivo at 30 mg/kg [3] of 48.8%.
For `CC(C)CCOC(=O)c1cc(=O)c2c(O)nc3ccc(Cl)cc3c2o1` [3-methyl-1-butyl ester of 9-chloro-5-hydroxy-quinolo[4,3-b]pyran-4-one-2-carboxylic acid], the inhibition in vivo at 30 mg/kg [3] was 59.5%.
For `CCCCCCCCCCCCOC(=O)c1cc(=O)c2c(O)nc3c(C)c(C)ccc3c2o1` [n-dodecyl ester of 7,8-dimethyl-5-hydroxy-quinolo[4,3-b]pyran-4-one-2-carboxylic acid, reference compound], the inhibition in vivo at 30 mg/kg [3] was -26.2%.
Compound `CCCCCCCCOC(=O)c1cc(=O)c2c(O)nc3c(C)c(C)ccc3c2o1` [n-octyl ester of 7,8-dimethyl-5-hydroxy-quinolo[4,3-b]pyran-4-one-2-carboxylic acid, reference compound] has an inhibition in vivo at 30 mg/kg [3] of 39.3%.
In the case of `Cc1ccc2nc(O)c3c(=O)cc(C(=O)OCCC(C)C)oc3c2c1` [3-methyl-1-butyl ester of 9-methyl-5-hydroxy-quinolo[4,3-b]pyran-4-one-2-carboxylic acid], the inhibition in vivo at 30 mg/kg [3] is reported as 87.2%.
Compound `Cc1ccc2c(nc(O)c3c(=O)cc(C(=O)OC(C)C)oc32)c1C` [isopropyl ester of 7,8-dimethyl-5-hydroxy-quinolo[4,3-b]pyran-4-one-2-carboxylic acid, reference compound] has an inhibition in vivo at 30 mg/kg [3] of 7.3%.
For `CCCC(C)COC(=O)c1cc(=O)c2c(O)nc3ccc(C)cc3c2o1` (centres unmarked) [2-methyl-1-pentyl ester of 9-methyl-5-hydroxy-quinolo[4,3-b]pyran-4-one-2-carboxylic acid], the inhibition in vivo at 30 mg/kg [3] was 83.8%.
With `Cc1ccc2c(nc(O)c3c(=O)cc(C(=O)OC(C)C(C)C)oc32)c1C` (centres unmarked) [3-methyl-2-butyl ester of 7,8-dimethyl-5-hydroxy-quinolo[4,3-b]pyran-4-one-2-carboxylic acid, reference compound] the inhibition in vivo at 30 mg/kg [3] was 22.6%.
`Cc1ccc2c(nc(O)c3c(=O)cc(C(=O)OCC(C)(C)C)oc32)c1C` [2,2-dimethyl-1-propyl ester of 7,8-dimethyl-5-hydroxy-quinolo[4,3-b]pyran-4-one-2-carboxylic acid] gave an inhibition in vivo at 30 mg/kg [3] of 93.2%.
For `Cc1ccc2c(nc(O)c3c(=O)cc(C(=O)OC4CCCCC4)oc32)c1C` [1-cyclohexyl ester of 7,8-dimethyl-5-hydroxy-quinolo[4,3-b]pyran-4-one-2-carboxylic acid, reference compound], the inhibition in vivo at 30 mg/kg [3] was 33.7%.
`CCCC(CC)OC(=O)c1cc(=O)c2c(O)nc3ccc(C)cc3c2o1` (centres unmarked) [3-hexyl ester of 9-methyl-5-hydroxy-quinolo[4,3-b]pyran-4-one-2-carboxylic acid] showed an inhibition in vivo at 30 mg/kg [3] of 81.8%.
`Cc1ccc2c(nc(O)c3c(=O)cc(C(=O)OCCC(C)C)oc32)c1C` [3-methyl-1-butyl ester of 7,8-dimethyl-5-hydroxy-quinolo[4,3-b]pyran-4-one-2-carboxylic acid] showed an inhibition in vivo at 30 mg/kg [3] of 95.5%.
With `CCC(OC(=O)c1cc(=O)c2c(O)nc3c(C)c(C)ccc3c2o1)C(C)C` (centres unmarked) [2-methyl-3-pentyl ester of 7,8-dimethyl-5-hydroxy-quinolo[4,3-b]pyran-4-one-2-carboxylic acid, reference compound] the inhibition in vivo at 30 mg/kg [3] was 32.1%.
For `Cc1ccc2c(nc(O)c3c(=O)cc(C(=O)OCC(C)C)oc32)c1C` [2-methyl-1-propyl ester of 7,8-dimethyl-5-hydroxy-quinolo[4,3-b]pyran-4-one-2-carboxylic acid, reference compound], the inhibition in vivo at 30 mg/kg [3] was 2.5%.
`Cc1ccc2nc(O)c3c(=O)cc(C(=O)OCC(C)(C)C)oc3c2c1` [2,2-dimethyl-1-propyl ester of 9-methyl-5-hydroxy-quinolo[4,3-b]pyran-4-one-2-carboxylic acid] showed an inhibition in vivo at 30 mg/kg [3] of 58.4%.
Compound `CCCCCCCCCCOC(=O)c1cc(=O)c2c(O)nc3c(C)c(C)ccc3c2o1` [n-decyl ester of 7,8-dimethyl-5-hydroxy-quinolo[4,3-b]pyran-4-one-2-carboxylic acid, reference compound] has an inhibition in vivo at 30 mg/kg [3] of 4.7%.
Work on `CCCCCCCOC(=O)c1cc(=O)c2c(O)nc3c(C)c(C)ccc3c2o1` [n-heptyl ester of 7,8-dimethyl-5-hydroxy-quinolo[4,3-b]pyran-4-one-2-carboxylic acid, reference compound] yielded an inhibition in vivo at 30 mg/kg [3] of 36.3%.
For `CCCC(C)COC(=O)c1cc(=O)c2c(O)nc3c(C)c(C)ccc3c2o1` (centres unmarked) [2-methyl-1-pentyl ester of 7,8-dimethyl-5-hydroxy-quinolo[4,3-b]pyran-4-one-2-carboxylic acid], the inhibition in vivo at 30 mg/kg [3] was 97.9%, the “Percent inhibition (%)” value ([4]; period of time 10 min.) was 96.5% and the “Percent inhibition (%)” value ([4]; period of time 20 min.) was 98.5%. For the same compound, the “Percent inhibition (%)” value ([4]; period of time 30 min.) was 95.0%, the “Percent inhibition (%)” value ([4]; period of time 40 min.) was 93.0% and the “Percent inhibition (%)” value ([4]; period of time 1 hr.) was 92.5%. The “Percent inhibition (%)” value ([4]; period of time 2 hrs.) was 72.5%, the “Percent inhibition (%)” value ([4]; period of time 3 hrs.) was 61.5% and the “Percent inhibition (%)” value ([4]; period of time 4 hrs.) was 53.0%.
In the case of `CCCCCOC(=O)c1cc(=O)c2c(O)nc3c(C)c(C)ccc3c2o1` [n-pentyl ester of 7,8-dimethyl-5-hydroxy-quinolo[4,3-b]pyran-4-one-2-carboxylic acid, reference compound], the inhibition in vivo at 30 mg/kg [3] is reported as 26.5%.
In the case of `CCC(CC)COC(=O)c1cc(=O)c2c(O)nc3c(C)c(C)ccc3c2o1` [2-ethyl-1-butyl ester of 7,8-dimethyl-5-hydroxy-quinolo[4,3-b]pyran-4-one-2-carboxylic acid, reference compound], the inhibition in vivo at 30 mg/kg [3] is reported as 49.1%.
Work on `COc1cc2nc(O)c3c(=O)cc(C(=O)OCCC(C)C)oc3c2cc1OC` [3-methyl-1-butyl ester of 8,9-dimethoxy-5-hydroxy-quinolo[4,3-b]pyran-4-one-2-carboxylic acid] yielded an inhibition in vivo at 30 mg/kg [3] of 67.3%.
`CCOC(=O)c1cc(=O)c2c(O)nc3c(C)c(C)ccc3c2o1` [ethyl ester of 7,8-dimethyl-5-hydroxy-quinolo[4,3-b]pyran-4-one-2-carboxylic acid, reference compound] showed an inhibition in vivo at 100 mg/kg ([3]; 100 mg/kg) of 36.1%.
`CCOC(=O)c1ccc2nc(O)c3c(=O)cc(C(=O)OCCC(C)C)oc3c2c1` [3-methyl-1-butyl ester of 9-ethoxycarbonyl-5-hydroxy-quinolo[4,3-b]pyran-4-one-2-carboxylic acid] showed an inhibition in vivo at 30 mg/kg [3] of 52.7%.
`Cc1ccc2c(nc(O)c3c(=O)cc(C(=O)OCCCc4ccccc4)oc32)c1C` [3-phenyl-1-propyl ester of 7,8-dimethyl-5-hydroxy-quinolo[4,3-b]pyran-4-one-2-carboxylic acid, reference compound] gave an inhibition in vivo at 30 mg/kg [3] of -7.2%.
`Cc1ccc2c(nc(O)c3c(=O)cc(C(=O)OCCC(C)(C)C)oc32)c1C` [3,3-dimethyl-1-butyl ester of 7,8-dimethyl-5-hydroxy-quinolo[4,3-b]pyran-4-one-2-carboxylic acid, reference compound] gave an inhibition in vivo at 30 mg/kg [3] of 26.5%.
For `CCCC(C)OC(=O)c1cc(=O)c2c(O)nc3ccc(C)cc3c2o1` (centres unmarked) [2-pentyl ester of 9-methyl-5-hydroxy-quinolo[4,3-b]pyran-4-one-2-carboxylic acid], the inhibition in vivo at 30 mg/kg [3] was 70%.
In the case of `CCCCCCOC(=O)c1cc(=O)c2c(O)nc3c(C)c(C)ccc3c2o1` [n-hexyl ester of 7,8-dimethyl-5-hydroxy-quinolo[4,3-b]pyran-4-one-2-carboxylic acid], the inhibition in vivo at 30 mg/kg [3] is reported as 72%.
